Source: paper PMC11317440, “Soloxolone para-methylanilide effectively suppresses aggressive phenotype of glioblastoma cells including TGF-β1-induced glial-mesenchymal transition in vitro and inhibits growth of U87 glioblastoma xenografts in mice” (Frontiers in Pharmacology, 2024)

Assays:
[1] = tested on: non-malignant human hFF3 fibroblasts; assay: MTT cell viability assay, hFF3 fibroblasts, 48 h; format: cell-based; conditions: 7 at 400 nM
Method: (§1) Cells were seeded in quadruplicate in 96-well plates at 10,000 cells/well and allowed to adhere overnight. The medium was then replaced with serum-free DMEM containing increasing concentrations of soloxolone amides for 48 h. After incubation, 3-(4,5-dimethylthiazol-2-yl)-2,5-diphenyltetrazolium bromide (MTT dye) was added at a final concentration of 0.5 mg/mL and left for 2 h. The resulting formazan crystals were dissolved in DMSO and the optical density was measured at 570 nm using a Multiscan RC plate reader (Thermo LabSystems, Helsinki, Finland).

[2] = tested on: EPNT-5 glioblastoma cells; assay: MTT cell viability assay, EPNT-5 cells, 48 h; format: cell-based; conditions: Mus musculus
Method: as §1

U87 cells [3] = assay: Annexin V-FITC/propidium iodide flow cytometry, U87, 48 h; format: cell-based, human
Method: To observe apoptosis and necrosis, U87 and U118 cells were stained with Annexin V-FITC and propidium iodide (ab14085; Abcam, Inc., Cambridge, MA, USA) after 48 h of incubation with compound 7 (0–2000 nM) according to the manufacturer’s protocol (n = 3). To quantify the total proportion of apoptotic cells in control and experimental groups, the events accumulated in the lower right quadrant (early apoptosis) and upper right quadrant (late apoptosis) were summarized.
(§2) After staining, 10,000 cells per sample were analyzed on a NovoCyte flow cytometer using NovoExpress software (ACEA Biosciences, Inc., USA).

SMAD2/3 = SMAD2/3 nuclear translocation (immunofluorescence), U87 cells; format: cell-based, human; conditions: U87, 7 50 nM pretreatment 48 h, TGF-β1 50 ng/mL 1 h
Method: U87 cells (150,000 cells/well) were allowed to attach to glass coverslips in 24-well plates prior to 48-h incubation with compound 7 (50 nM) under serum-free conditions, followed by stimulation with TGF-β1 (50 ng/mL) for 1 h. After fixation in 4% formaldehyde for 20 min, cells were incubated with primary antibodies against Smad2/3 (1:100, ab202445) for 1 h under permeabilizing conditions (0.1% Triton X100, 5 mg/mL BSA, 37°C) and Alexa Fluor 488-conjugated secondary antibodies (1:500, ab150077) for 1 h in the dark. Finally, nuclei were stained with DAPI (1 μg/mL) for 10 min and cells were mounted on glass slides with Fluoromount-G (Thermo Fisher Scientific, Rockford, IL, USA). Images were captured using a LSM710 confocal microscope (Zeiss, Oberkochen, Germany) at ×40 magnification. Nuclear translocation was quantified by measuring the ratio of nuclear to perinuclear intensity of Alexa Fluor 488 in CellProfiler software (Broad Institute, Cambridge, MA, USA) for 50 cells per experimental group (n = 3).

[4] = tested on: U87 secondary tumorspheres; assay: Secondary tumorsphere formation, U87; format: cell-based, human
Method: For evaluation of spheroid growth, the bottom of the 96-well plate was covered with 1% agarose for non-adherent conditions. U87 cells (5,000 cells/well) were then seeded and allowed to form spheroids for 24 h, after which increasing concentrations of compound 7 (0–1,000 nM) were added (n = 8). Every other day of the 10-day experiment, fresh medium supplemented with compound 7 was added to half of the medium, and the spheroids were photographed using a camera-equipped ZEISS Primo Vert microscope (Carl Zeiss Microscopy GmbH, Jena, Germany). To assess the formation of secondary tumorspheres, cells were dissociated from primary tumorspheres after 4 days of compound 7 stimulation using TrypLE Express and were then seeded into agarose-coated 96-well plates (n = 8). On day 3, the resulting secondary spheroids were examined microscopically. Primary and secondary spheroid areas were quantified using ImageJ.

U118 cells = assay: MTT assay 72 h, 7 and TMZ alone and combined, synergy (HSA), U118; format: cell-based, human
Method: The drug synergy score was calculated for the dose-response matrix according to the highest single-agent (HSA) model using the SynergyFinder + web application (https://www.synergyfinder.org/).

[5] = tested on: TGF-β1-treated U118 cells; assay: Adhesion of U118 cells to culture plastic (TrypLE treatment, MTT); format: cell-based, human; conditions: TGF-β1 50 ng/mL, 7 50 nM, 48 h
Method: Adhesiveness of glioblastoma cells was assessed by two independent methods. First, cell adhesion to culture plastic was tested using a trypsin treatment assay, as previously described ([Sava et al., 2004]; [Mazuryk et al., 2015]; [van Dijk et al., 2017]). Briefly, U87 and U118 cells (10,000 cells per well of a 96-well plate, n = 4) were cultured with TGF-β1 (50 ng/mL) and non-toxic concentrations of soloxolone amides for 48 h and then treated with a 1:20 dilution of TrypLE Express (Gibco, USA) in PBS for 3 min at 37°C. Non-adherent cells were then removed by a triple PBS wash, and the remaining adherent cells were fixed with 4% formaldehyde and stained with crystal violet dye (0.1% w/v). Images were captured using the iBright 1,500 Imaging System (Invitrogen, USA), and the cell-occupied area was calculated using ImageJ. Alternatively, the number of adherent cells was quantified using the MTT assay.

[6] = tested on: aldehyde dehydrogenase (ALDH) activity in U87 primary tumorspheres; assay: ALDH activity in U87 tumorspheres (AldeRed, flow cytometry); format: cell-based, human; conditions: 7 at 50 and 100 nM, regardless of the dose, 4 days
Method: To assess ALDH activity, U87 cells were dissociated from spheroids using TrypLE Express after 4 days of induction with compound 7 (0–100 nM) (n = 3). Cells were then stained with the AldeRed ALDH Detection Assay (SCR150; EMD Millipore, Burlington, MA, USA) according to the manufacturer’s protocol. Experimental controls included U87 cells grown in 2D culture and cells treated with the ALDH inhibitor diethylaminobenzaldehyde (DEAB). Gates of ALDH-positive cells were set according to the inhibitory effect of DEAB on control cells.
as §2

U87 cells [7] = assay: Colony formation assay, U87 cells; format: cell-based, human; conditions: 10 days
Method: U87, U118 and EPNT-5 cells were seeded at a density of 200 cells/well in 96-well plates and treated with increasing concentrations of compound 7 (0–1,000 nM) dissolved in 10% FBS-containing DMEM (n = 5). On day 10, colonies were fixed with 4% formaldehyde and stained with crystal violet dye (0.1% w/v). Images were captured using the iBright 1,500 Imaging System (Invitrogen, USA) and the area of colonies with a minimum diameter of 100 µm was calculated using ImageJ. In the case of overlapping colonies, their total area was calculated. Finally, the area of the formed cell colonies was summed and normalized to the total colony area in the control.

Compound: Cc1ccc(NC(=O)[C@@]2(C)CC[C@]3(C)CC[C@]4(C)[C@H](C(=O)C=C5[C@@]6(C)C=C(C#N)C(=O)C(C)(C)C6CC[C@]54C)[C@@H]3C2)cc1 (some centres unmarked) [compound 7, N-p-tolyl-2-cyano-3,12-dioxo-18βH-olean-9(11),1(2)-dien-30-amide]
- death of hFF3 cells [1]: about 21%
- IC50 [2]: 257 nM
- percentage of cells in the right quadrants (apoptosis) (U87 cells [3]; U87, 7 450 nM): 3.7%
- necrosis (upper left quadrant) (U87 cells [3]; U87, 7 1,000 nM): 23.4%
- percentage of cells in the right quadrants (apoptosis) (U87 cells [3]; U87, 7 1,000 nM): 40%
- necrosis (upper left quadrant) (U87 cells [3]; U87, 7 2000 nM): 14.8%
- percentage of cells in the right quadrants (apoptosis) (U87 cells [3]; U87, 7 2000 nM): 83.3%
- reduction of nuclear-cytoplasmic ratio of SMAD2/3 (SMAD2/3): 52%
- increase of secondary tumorsphere area ([4]; U87, 7 50 nM for 4 days, p-value <0.01): 22.6%
- increase of secondary tumorsphere area ([4]; U87, 7 100 nM for 4 days, not statistically significant): 6.6%
- decrease of secondary tumorsphere area ([4]; U87, 7 450 nM for 4 days): 23.9%
- decrease of secondary tumorsphere area ([4]; U87, 7 1,000 nM for 4 days): 84.1%
- IC50 (U118 cells; Homo sapiens, MTT): 169 nM
- reduction of the cytotoxic effect by NAC (U118 cells; U118, NAC 2 mM, TMZ 125 μM, 7 100 nM): 80.3%
- TGF-β1-induced decrease in U118 cell adhesion to culture plastic [5]: effectively reversed
- reduction of the number of ALDH+ cells compared to the control [6]: 2.3 fold
- inhibition at 0.05 µM (U87 cells [7]; Homo sapiens, U-87 MG, 240 h, U87, 7 50 nM): 48.7%
- inhibition at 0.1 µM (U87 cells [7]; Homo sapiens, U-87 MG, 240 h, U87, 7 100 nM): 74.2%
- colony area (U87 cells [7]; U87, 7 50 nM): 51.3%
- colony area (U87 cells [7]; U87, 7 1,000 nM): 3.9%
